Laboratory results from publication PMC7035970 (Cell chemical biology, 2019).
In brackets after ≈: the same amount, converted by molar mass.

Legend:
[1] = system: M. tuberculosis strain mc^24914 (inhA promoter c(−15)t); assay: microbe, parasite or virus in culture; type: cell-based, Mycobacterium tuberculosis; conditions: for MIC: Mycobacterium tuberculosis
[2] = system: M. tuberculosis strain DRM12 (katG S315T); type: cell-based, Mycobacterium tuberculosis
[3] = system: M. tuberculosis strain fgd1∷tn; assay: MIC versus F420H2 deficient strain fgd1∷tn; type: cell-based, Mycobacterium tuberculosis; conditions: Mycobacterium tuberculosis
[4] = system: M. tuberculosis strain JSF-Mtb-1 (fbiC F567S, inhA promoter c(−15)t); type: cell-based, Mycobacterium tuberculosis
[5] = system: M. tuberculosis strain ddn∷tn; assay: microbe, parasite or virus in culture; type: cell-based, Mycobacterium tuberculosis; conditions: for MIC: Mycobacterium tuberculosis
[6] = system: M. tuberculosis clinical strains TDR31, TDR36, and TDR116; type: cell-based, Mycobacterium tuberculosis
[7] = system: spontaneous M. tuberculosis JSF-2019 resistant mutant strains; type: cell-based, Mycobacterium tuberculosis
M. tuberculosis H37Rv = conditions: introduction, no reference given; cited from earlier work

Compound | MIC shift, mc^24914 (inhA overexpression) versus H37Rv [1] | MIC [1] [µM] | MIC [2] [µM] | MIC shift / loss of efficacy, DRM12 (KatG S315T) versus H37Rv [2] | MIC [3] [µM] | MIC [4] [µM] | MIC change, JSF-Mtb-1 versus H37Rv [4] [x] | loss of susceptibility, ddn∷tn versus wild type H37Rv [5] [x] | MIC [5] [µM] | activity versus clinical isolates with the KatG S315T mutation [6] | MIC [7] [µM] | MIC shift versus the parental strain H37Rv [7] [x] | loss of potency from any one resistance mutation (M. tuberculosis H37Rv) [fold]
O=[N+]([O-])c1ccc(/C=N/Nc2nc(Nc3ccccc3)nc(Nc3ccccc3)n2)o1 [JSF-2019, (E)-6-(2-((5-nitrofuran-2-yl)methylene)hydrazinyl)-N2,N4-diphenyl-1,3,5-triazine-2,4-diamine] | 8 x | 0.63 (≈ 0.262 µg/mL) | 0.078 (≈ 0.0325 µg/mL) | lack of an MIC shift | 1.3 (≈ 0.541 µg/mL) | 5.0 (≈ 2.08 µg/mL) | 64 | 8 | 0.63 (≈ 0.262 µg/mL) | maintained its wild type strain activity | – | – | –
NNC(=O)c1ccncc1 [INH, reference compound] | 8 x | 1.25 (≈ 0.171 µg/mL) | >10 | > 62 fold | 0.16 (≈ 0.0219 µg/mL) | 1.25 (≈ 0.171 µg/mL) | – | – | 0.16 (≈ 0.0219 µg/mL) | – | 0.16 (≈ 0.0219 µg/mL) | 8 | –
O=[N+]([O-])c1ccc(/C=N/Nc2nc(Nc3ccccc3)nc(N3CCOCC3)n2)o1 [JSF-2513, (E)-4-morpholino-6-(2-((5-nitrofuran-2-yl)methylene)hydrazineyl)-N-phenyl-1,3,5-triazin-2-amine] | four-fold | 2.5 (≈ 1.03 µg/mL) | 0.63 (≈ 0.259 µg/mL) | lack of an MIC shift | 10 (≈ 4.1 µg/mL) | 20 (≈ 8.21 µg/mL) | – | 2 | 1.3 (≈ 0.534 µg/mL) | – | – | – | –
C[C@]1(COc2ccc(N3CCC(Oc4ccc(OC(F)(F)F)cc4)CC3)cc2)Cn2cc([N+](=O)[O-])nc2O1 [delamanid] | – | – | – | – | – | – | – | – | – | – | – | – | ≥ 500
O=[N+]([O-])c1cn2c(n1)OC[C@@H](OCc1ccc(OC(F)(F)F)cc1)C2 [Pretomanid, reference compound] | – | 0.16 (≈ 0.0575 µg/mL) | 0.039 (≈ 0.014 µg/mL) | – | > 40 | >40 | – | > 1000 | – | – | – | – | ≥ 500
